Measured values from patent US11155523B2, “Biphenyl compound as CCR2/CCR5 receptor antagonist” (Medshine Discovery Inc., priority 2016, dated 2021).

target: T1, CCR5 (Homo sapiens, UniProt P51681); assay: CCR5 in vitro test: intracellular calcium signal detected by FLIPR; type: cell-based; conditions: HEK293 cells expressing CCR5, agonist RANTES at EC80, calcium signal
T1 construct: expressed in transfected cells; host or cells: HEK293, clone C13, passage P4
Description: (§1) Experimental Example 1: CCR2/CCR5 In Vitro Test
(§2) The intracellular calcium signal was detected by FLIPR, and the IC50 value of the compound was used as an index to evaluate the inhibitory effect of the compound on CCR2 and CCR5 receptors.
(§3) 1. Cell line: The cells were inoculated and incubated in a 5% CO2 incubator at 37° C. overnight.
(§4) CCR2/CCR5 density: 1 M (20 k/well)
(§5) 2. Reagents: Fluo-4 Direct, (Invitrogen, Cat #F10471)
(§6) The compound was dissolved in DMSO to prepare a 10 mM solution, and the compound solution was placed in a nitrogen box.
(§7) Agonist reference compounds:
(§8) Preparation of probenecid in FLIPR assay buffer: 1 mL of FLIPR assay buffer was added to […] of probenecid to prepare a 250 mM solution, which is prepared fresh daily.
(§9) 2× (8 μM) Fluo-4 Direct™ Loading Buffer (per 10 mL) • Thaw a bottle of Fluo-4 Direct™ crystal (F10471). • Add 10 mL of FLIPR assay buffer to the vial. • Add 0.2 mL of probenecid to each 10 mL of Fluo-Direct. The final concentration of the assay was 2.5 mM. • Rotate it and place for >5 minutes (in absence of light). • Prepare fresh daily.
(§10) MCP-1 was diluted in FLIPR assay buffer 1:2 into 10 points, starting at 0.5 uM (final 100 nM). RANTES was diluted in FLIPR assay buffer 1:3 into 10 points, starting at 0.5 uM (final 100 nM). 20 uL of serially diluted compound buffer was added to each well of the DRC plate according to the compound plate map.
(§11) Standard compound was diluted in DMSO 1:3 into 11 points, starting at 1 mM. Test compound was diluted in DMSO 1:3 into 11 points, starting at 2 mM. 250 nL of compound solution was transferred into a cell plate using Echo (Greiner #781946).
(§12) (c) Take the cell plate out of the incubator, and gently dispense 20 uL of 2× Fluo-4 Direct wash-free loading buffer into a 384-well cell culture plate using a pipette. The final cell plate is 40 μL in volume.
(§13) (d) Incubate for 50 minutes at 37° C. under 5% CO2, and for 10 minutes at room temperature.
(§14) (e) Take the cell plate out of the incubator, and place it in FLIPR. Place the composite plate and the tip box in FLIPR.
(§15) (f) For DRC plate: • 1) Run the program on FLIPRTETRA. • 2) Read the fluorescent signal. • 3) Transfer 10 μL of compound from the DRC plate to the cell plate. • 4) Read the fluorescent signal. • 5) Calculate the “maximum−minimum” from Read 90 to the maximum allowed. Use FLIPR to calculate the EC80 value of each cell line. • 6) Prepare 5×EC80 concentration of the agonist reference compound.
(§16) (g) For the composite plate (1-add): • 1) Run the program on FLIPRTETRA. • 2) Transfer 10 μl, of 5×EC80 concentration of the agonist reference compound from the composite plate to the cell plate. • 3) Read the fluorescent signal. • 4) Calculate the “maximum−minimum” from Read 90 to the maximum allowed.
(§17) (h) Analyze the data using Prism, and calculate the IC50 value of the compound.

T1 sequence (P51681 whole entry, species assumed): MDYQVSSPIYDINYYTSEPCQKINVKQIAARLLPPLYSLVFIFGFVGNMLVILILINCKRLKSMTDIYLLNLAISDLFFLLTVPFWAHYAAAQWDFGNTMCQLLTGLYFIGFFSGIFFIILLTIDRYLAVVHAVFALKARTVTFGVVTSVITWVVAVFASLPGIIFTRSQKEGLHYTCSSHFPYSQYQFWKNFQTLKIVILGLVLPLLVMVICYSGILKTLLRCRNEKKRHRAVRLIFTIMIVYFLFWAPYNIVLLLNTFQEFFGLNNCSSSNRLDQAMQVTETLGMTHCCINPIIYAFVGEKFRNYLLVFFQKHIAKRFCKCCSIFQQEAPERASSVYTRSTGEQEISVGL

**Q.** With `CCCCOCCOc1ccc(-c2cccc(/C=C/C(=O)Nc3ccc([S@@+]([O-])Cc4cncn4CCC)cc3)c2)cc1` [WX001] as the compound, how does the IC50 read?
**A.** 9.3 nM

**Q.** For `CCCn1cncc1C[S@+]([O-])c1ccc(NC(=O)/C=C/c2cccc(-c3ccc(OC)cc3)c2)cc1` [WX002], which IC50 is on record?
**A.** 113 nM

**Q.** For `CCCCOCCOc1ccc(-c2ccc(F)c(/C=C/C(=O)Nc3ccc([S@@+]([O-])Cc4cncn4CCC)cc3)c2)cc1` [WX003], which IC50 is on record?
**A.** 3 nM

**Q.** How did the IC50 turn out when `CCCn1cncc1C[S@+]([O-])c1ccc(NC(=O)/C=C/c2cccc(-c3ccc(OCC)cc3)c2)cc1` [WX004] was run?
**A.** 7.1 nM

**Q.** With `CCCCOCCOc1ccc(-c2ccc(CC)c(/C=C/C(=O)Nc3ccc([S@@+]([O-])Cc4cncn4CCC)cc3)c2)cc1` [WX005] as the compound, how does the IC50 read?
**A.** 3.4 nM

**Q.** How did the IC50 turn out when `CCCCOCCOc1ccc(-c2ccc(C(C)C)c(/C=C/C(=O)Nc3ccc([S@@+]([O-])Cc4cncn4CCC)cc3)c2)cc1` [WX006] was run?
**A.** 3.3 nM

**Q.** `CCCn1cncc1C[S@+]([O-])c1ccc(NC(=O)/C=C/c2cccc(-c3ccc(OC(C)C)cc3)c2)cc1` [WX007] was tested. Which IC50 did it give?
**A.** 6.4 nM

**Q.** With `CCCCOCCOc1ccc(-c2cccc(/C=C(\C)C(=O)Nc3ccc([S@@+]([O-])Cc4cncn4CCC)cc3)c2)cc1` [WX008] as the compound, how does the IC50 read?
**A.** 1.5 nM

**Q.** How did the IC50 turn out when `CCCCOc1ccc(-c2cccc(/C=C/C(=O)Nc3ccc([S@@+]([O-])Cc4cncn4CCC)cc3)c2)cc1` [WX009] was run?
**A.** 9.4 nM

**Q.** Which IC50 does the source give for `CCCCOCCOc1ccc(-c2cccc(/C=C/C(=O)Nc3ccc([S@@+]([O-])Cc4nncn4CCC)cc3)c2)cc1` [WX010] here?
**A.** 17.2 nM

**Q.** How did the IC50 turn out when `CCCCOCCOc1ccc(-c2ccc(C)c(/C=C/C(=O)Nc3ccc([S@@+]([O-])Cc4cncn4CCC)cc3)c2)cc1` [WX011] was run?
**A.** 2.6 nM

**Q.** Which IC50 does the source give for `CCCCOCCOc1ccc(-c2cccc(/C(C)=C/C(=O)Nc3ccc([S@@+]([O-])Cc4cncn4CCC)cc3)c2)cc1` [WX012] here?
**A.** 5.4 nM

**Q.** With `CCCn1cncc1C[S@+]([O-])c1ccc(NC(=O)/C=C/c2cccc(-c3ccc(OCCOC)cc3)c2)cc1` [WX013] as the compound, how does the IC50 read?
**A.** 14.2 nM

**Q.** How did the IC50 turn out when `CCCCOCCOc1ccc(-c2ccc(F)c(/C(C)=C/C(=O)Nc3ccc([S@@+]([O-])Cc4cncn4CCC)cc3)c2)cc1` [WX014] was run?
**A.** 7.9 nM

**Q.** For `CCCOc1ccc(-c2cccc(/C=C(\C)C(=O)Nc3ccc([S+]([O-])Cc4nncn4CCC)cc3)c2)cc1` (centres unmarked) [WX015], which IC50 is on record?
**A.** 65.1 nM

**Q.** Which IC50 does the source give for `CCCCOCCOc1ccc(-c2ccc(Cl)c(/C=C/C(=O)Nc3ccc([S@@+]([O-])Cc4cncn4CCC)cc3)c2)cc1` [WX016] here?
**A.** 4.5 nM

**Q.** For `CCCCOc1ccc(-c2ccc(OC(F)F)c(/C=C/C(=O)Nc3ccc([S@@+]([O-])Cc4cncn4CCC)cc3)c2)cc1` [WX018], which IC50 is on record?
**A.** 7.3 nM

**Q.** How did the IC50 turn out when `CCCCOCCOc1ccc(-c2cccc(/C=C/C(=O)Nc3ccc([S+]([O-])Cc4cncn4CC)cc3)c2)cc1` (centres unmarked) [WX019] was run?
**A.** 50.9 nM

**Q.** For `CCCCOc1ccc(-c2ccc(Cl)c(/C=C/C(=O)Nc3ccc([S+]([O-])Cc4cncn4CC)cc3)c2)cc1` (centres unmarked) [WX020], which IC50 is on record?
**A.** 8.2 nM

**Q.** For `CCCCOc1ccc(-c2ccc(Cl)c(/C=C/C(=O)Nc3ccc([S+]([O-])Cc4cncn4CC4CC4)cc3)c2)cc1` (centres unmarked) [WX021], which IC50 is on record?
**A.** 8.8 nM

**Q.** For `CCCn1cncc1C[S@+]([O-])c1ccc(NC(=O)/C=C/c2cc(-c3ccc(OCCCF)cc3)ccc2Cl)cc1` [WX022], which IC50 is on record?
**A.** 10.1 nM

**Q.** Which IC50 does the source give for `CCCCOCCOc1ccc(-c2cccc(/C=C/C(=O)Nc3ccc([S+]([O-])Cc4cncn4CC4CC4)cc3)c2)cc1` (centres unmarked) [WX023] here?
**A.** 53.3 nM

target: T2, CCR2 (Homo sapiens, UniProt P41597); assay: CCR2 in vitro test: intracellular calcium signal detected by FLIPR; type: cell-based; conditions: HEK293 cells expressing CCR2, agonist MCP-1 at EC80, calcium signal
T2 construct: expressed in transfected cells; host or cells: HEK293, clone C7, passage P6
T2 sequence (P41597 whole entry, species assumed): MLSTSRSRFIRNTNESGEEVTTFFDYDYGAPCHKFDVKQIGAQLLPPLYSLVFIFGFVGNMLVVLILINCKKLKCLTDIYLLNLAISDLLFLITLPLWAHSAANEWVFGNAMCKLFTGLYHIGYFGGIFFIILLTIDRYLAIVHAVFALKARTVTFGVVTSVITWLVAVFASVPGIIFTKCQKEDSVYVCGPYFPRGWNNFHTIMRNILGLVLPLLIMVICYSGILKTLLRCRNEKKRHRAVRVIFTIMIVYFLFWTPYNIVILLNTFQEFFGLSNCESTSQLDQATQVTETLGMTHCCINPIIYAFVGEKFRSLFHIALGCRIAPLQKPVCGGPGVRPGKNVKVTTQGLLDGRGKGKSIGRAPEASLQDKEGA
Description: as §1, §2, §3, §4, §5, §6, §7, §8, §9, §10, §11, §12, §13, §14, §15, §16, §17

**Q.** How did the IC50 turn out when `CCCCOCCOc1ccc(-c2cccc(/C=C/C(=O)Nc3ccc([S@@+]([O-])Cc4cncn4CCC)cc3)c2)cc1` [WX001] was run?
**A.** 29.9 nM

**Q.** For `CCCn1cncc1C[S@+]([O-])c1ccc(NC(=O)/C=C/c2cccc(-c3ccc(OC)cc3)c2)cc1` [WX002], which IC50 is on record?
**A.** 319 nM

**Q.** With `CCCCOCCOc1ccc(-c2ccc(F)c(/C=C/C(=O)Nc3ccc([S@@+]([O-])Cc4cncn4CCC)cc3)c2)cc1` [WX003] as the compound, how does the IC50 read?
**A.** 21.6 nM

**Q.** How did the IC50 turn out when `CCCn1cncc1C[S@+]([O-])c1ccc(NC(=O)/C=C/c2cccc(-c3ccc(OCC)cc3)c2)cc1` [WX004] was run?
**A.** 153 nM

**Q.** `CCCCOCCOc1ccc(-c2ccc(CC)c(/C=C/C(=O)Nc3ccc([S@@+]([O-])Cc4cncn4CCC)cc3)c2)cc1` [WX005] was tested. Which IC50 did it give?
**A.** 12.1 nM

**Q.** Which IC50 does the source give for `CCCCOCCOc1ccc(-c2ccc(C(C)C)c(/C=C/C(=O)Nc3ccc([S@@+]([O-])Cc4cncn4CCC)cc3)c2)cc1` [WX006] here?
**A.** 32.1 nM

**Q.** With `CCCn1cncc1C[S@+]([O-])c1ccc(NC(=O)/C=C/c2cccc(-c3ccc(OC(C)C)cc3)c2)cc1` [WX007] as the compound, how does the IC50 read?
**A.** 65.2 nM

**Q.** Which IC50 does the source give for `CCCCOCCOc1ccc(-c2cccc(/C=C(\C)C(=O)Nc3ccc([S@@+]([O-])Cc4cncn4CCC)cc3)c2)cc1` [WX008] here?
**A.** 17.3 nM

**Q.** How did the IC50 turn out when `CCCCOc1ccc(-c2cccc(/C=C/C(=O)Nc3ccc([S@@+]([O-])Cc4cncn4CCC)cc3)c2)cc1` [WX009] was run?
**A.** 63.2 nM

**Q.** How did the IC50 turn out when `CCCCOCCOc1ccc(-c2cccc(/C=C/C(=O)Nc3ccc([S@@+]([O-])Cc4nncn4CCC)cc3)c2)cc1` [WX010] was run?
**A.** 214 nM

**Q.** How did the IC50 turn out when `CCCCOCCOc1ccc(-c2ccc(C)c(/C=C/C(=O)Nc3ccc([S@@+]([O-])Cc4cncn4CCC)cc3)c2)cc1` [WX011] was run?
**A.** 61 nM

**Q.** Which IC50 does the source give for `CCCCOCCOc1ccc(-c2cccc(/C(C)=C/C(=O)Nc3ccc([S@@+]([O-])Cc4cncn4CCC)cc3)c2)cc1` [WX012] here?
**A.** 51 nM

**Q.** `CCCn1cncc1C[S@+]([O-])c1ccc(NC(=O)/C=C/c2cccc(-c3ccc(OCCOC)cc3)c2)cc1` [WX013] was tested. Which IC50 did it give?
**A.** 984 nM

**Q.** Which IC50 does the source give for `CCCCOCCOc1ccc(-c2ccc(F)c(/C(C)=C/C(=O)Nc3ccc([S@@+]([O-])Cc4cncn4CCC)cc3)c2)cc1` [WX014] here?
**A.** 258 nM

**Q.** With `CCCOc1ccc(-c2cccc(/C=C(\C)C(=O)Nc3ccc([S+]([O-])Cc4nncn4CCC)cc3)c2)cc1` (centres unmarked) [WX015] as the compound, how does the IC50 read?
**A.** 62 nM

**Q.** Which IC50 does the source give for `CCCCOCCOc1ccc(-c2ccc(Cl)c(/C=C/C(=O)Nc3ccc([S@@+]([O-])Cc4cncn4CCC)cc3)c2)cc1` [WX016] here?
**A.** 75.1 nM

**Q.** How did the IC50 turn out when `CCCCOc1ccc(-c2ccc(OC(F)F)c(/C=C/C(=O)Nc3ccc([S@@+]([O-])Cc4cncn4CCC)cc3)c2)cc1` [WX018] was run?
**A.** 43.5 nM

**Q.** For `CCCCOCCOc1ccc(-c2cccc(/C=C/C(=O)Nc3ccc([S+]([O-])Cc4cncn4CC)cc3)c2)cc1` (centres unmarked) [WX019], which IC50 is on record?
**A.** 9.3 nM

**Q.** For `CCCCOc1ccc(-c2ccc(Cl)c(/C=C/C(=O)Nc3ccc([S+]([O-])Cc4cncn4CC)cc3)c2)cc1` (centres unmarked) [WX020], which IC50 is on record?
**A.** 68.1 nM

**Q.** `CCCCOc1ccc(-c2ccc(Cl)c(/C=C/C(=O)Nc3ccc([S+]([O-])Cc4cncn4CC4CC4)cc3)c2)cc1` (centres unmarked) [WX021] was tested. Which IC50 did it give?
**A.** 64.5 nM

**Q.** With `CCCn1cncc1C[S@+]([O-])c1ccc(NC(=O)/C=C/c2cc(-c3ccc(OCCCF)cc3)ccc2Cl)cc1` [WX022] as the compound, how does the IC50 read?
**A.** 205 nM

**Q.** With `CCCCOCCOc1ccc(-c2cccc(/C=C/C(=O)Nc3ccc([S+]([O-])Cc4cncn4CC4CC4)cc3)c2)cc1` (centres unmarked) [WX023] as the compound, how does the IC50 read?
**A.** 37.1 nM
